Source: PubChem BioAssay AID2060901 (Molecular Pharmacology Branch, DTP, NCI, 2025)
pIC50: −log10 of the molar value.

System: 422866-222-R5-J1-PDC complex spheroids viability
Experiment: Anticancer human tumor 422866-222-R5-J1-PDC patient-derived pancreatic adenocarcinoma cell line growth inhibition [RAS]
Conditions: for pIC50: curve of first compound; for viability, T/C: stronger effect = lower value
Method in brief: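 Multi-cell-type spheroids: tumor cells plus HUVEC endothelial cells and mesenchymal stem cells. RAS-pathway inhibitors were combined with targeted agents, each dosed in half-log steps down from clinical Cmax, or from 10 microM when Cmax was unknown.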

[1] = second compound 0.000949 µM, first compound 0.0316 µM
[2] = second compound 0.000949 µM, first compound 0.1 µM
[3] = second compound 0.000949 µM, first compound 0.316 µM
[4] = second compound 0.000949 µM, first compound 1 µM
[5] = second compound 0.000949 µM, first compound 3.16 µM
[6] = second compound 0.000949 µM, first compound 10 µM
[7] = second compound 0.003 µM, first compound 0.0316 µM
[8] = second compound 0.003 µM, first compound 0.1 µM
[9] = second compound 0.003 µM, first compound 0.316 µM
[10] = second compound 0.003 µM, first compound 1 µM
[11] = second compound 0.003 µM, first compound 3.16 µM
[12] = second compound 0.003 µM, first compound 10 µM
[13] = second compound 0.00949 µM, first compound 0.0316 µM
[14] = second compound 0.00949 µM, first compound 0.1 µM
[15] = second compound 0.00949 µM, first compound 0.316 µM
[16] = second compound 0.00949 µM, first compound 1 µM
[17] = second compound 0.00949 µM, first compound 3.16 µM
[18] = second compound 0.00949 µM, first compound 10 µM
[19] = second compound 0.03 µM, first compound 0.0316 µM
[20] = second compound 0.03 µM, first compound 0.1 µM
[21] = second compound 0.03 µM, first compound 0.316 µM
[22] = second compound 0.03 µM, first compound 1 µM
[23] = second compound 0.03 µM, first compound 3.16 µM
[24] = second compound 0.03 µM, first compound 10 µM
[25] = second compound 0.0949 µM, first compound 0.0316 µM
[26] = second compound 0.0949 µM, first compound 0.1 µM
[27] = second compound 0.0949 µM, first compound 0.316 µM
[28] = second compound 0.0949 µM, first compound 1 µM
[29] = second compound 0.0949 µM, first compound 3.16 µM
[30] = second compound 0.0949 µM, first compound 10 µM
[31] = second compound 0.3 µM, first compound 0.0316 µM
[32] = second compound 0.3 µM, first compound 0.1 µM
[33] = second compound 0.3 µM, first compound 0.316 µM
[34] = second compound 0.3 µM, first compound 1 µM
[35] = second compound 0.3 µM, first compound 3.16 µM
[36] = second compound 0.3 µM, first compound 10 µM
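Note: spheroids exposed to compounds for 7 days.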
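Throughout, for viability, T/C: 100% = DMSO vehicle control viability.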

NC1c2ccccc2OC12CCN(c1cnc3c(N4CCCc5ncccc54)n[nH]c3n1)CC2 (stereo unspecified) + CCn1c(-c2cc(N3CCN(C)CC3)cnc2C(C)OC)c2c3cc(ccc31)-c1csc(n1)CC(NC(=O)C1CC1C)C(=O)N1CCCC(N1)C(=O)OCC(C)(C)C2
pIC50 (second compound 0.000949 µM): > 7.50 | pIC50 (second compound 0.003 µM): > 7.50 | pIC50 (second compound 0.00949 µM): > 7.50 | pIC50 (second compound 0.03 µM): > 7.50 | pIC50 (second compound 0.0949 µM): > 7.50 | pIC50 (second compound 0.3 µM): > 7.50 | viability, T/C [1]: 20.1% | viability, T/C [2]: 18.4% | viability, T/C [3]: 14.1% | viability, T/C [4]: 16.4% | viability, T/C [5]: 18.4% | viability, T/C [6]: 18.5% | viability, T/C [7]: 19.2% | viability, T/C [8]: 15.6% | viability, T/C [9]: 14.8% | viability, T/C [10]: 16.3% | viability, T/C [11]: 17.4% | viability, T/C [12]: 19.8% | viability, T/C [13]: 16.1% | viability, T/C [14]: 15.2% | viability, T/C [15]: 14.6% | viability, T/C [16]: 14.7% | viability, T/C [17]: 18.5% | viability, T/C [18]: 16.5% | viability, T/C [19]: 17.2% | viability, T/C [20]: 16.4% | viability, T/C [21]: 16.7% | viability, T/C [22]: 16.8% | viability, T/C [23]: 18.2% | viability, T/C [24]: 17.9% | viability, T/C [25]: 17.5% | viability, T/C [26]: 18.4% | viability, T/C [27]: 16.9% | viability, T/C [28]: 19.2% | viability, T/C [29]: 18.5% | viability, T/C [30]: 18.9% | viability, T/C [31]: 18.6% | viability, T/C [32]: 19% | viability, T/C [33]: 20.5% | viability, T/C [34]: 19.2% | viability, T/C [35]: 19.8% | viability, T/C [36]: 22.7%

CC(=O)OC12COC1CC(O)C1(C)C(=O)C(O)C3=C(C)C(OC(=O)C(O)C(NC(=O)OC(C)(C)C)c4ccccc4)CC(O)(C(OC(=O)c4ccccc4)C21)C3(C)C (stereo unspecified) + CCn1c(-c2cccnc2C(C)OC)c2c3cc(ccc31)N1CCOC(CC(NC(=O)C(C(C)C)N(C)C(=O)C3(F)CCN(C(=O)C#CC(C)(C)N(C)C)CC3)C(=O)N3CCCC(N3)C(=O)OCC(C)(C)C2)C1
pIC50 (second compound 0.000949 µM): > 7.50 | pIC50 (second compound 0.003 µM): > 7.50 | pIC50 (second compound 0.00949 µM): > 7.50 | pIC50 (second compound 0.03 µM): > 7.50 | pIC50 (second compound 0.0949 µM): > 7.50 | pIC50 (second compound 0.3 µM): > 7.50 | viability, T/C [1]: 23.9% | viability, T/C [2]: 23.8% | viability, T/C [3]: 25.8% | viability, T/C [4]: 27.3% | viability, T/C [5]: 26.3% | viability, T/C [6]: 25.9% | viability, T/C [7]: 19.9% | viability, T/C [8]: 19.6% | viability, T/C [9]: 19% | viability, T/C [10]: 21.1% | viability, T/C [11]: 19.8% | viability, T/C [12]: 21.1% | viability, T/C [13]: 19.9% | viability, T/C [14]: 19% | viability, T/C [15]: 20.1% | viability, T/C [16]: 21.5% | viability, T/C [17]: 22.5% | viability, T/C [18]: 19.6% | viability, T/C [19]: 15.4% | viability, T/C [20]: 19.2% | viability, T/C [21]: 21.6% | viability, T/C [22]: 19% | viability, T/C [23]: 21.3% | viability, T/C [24]: 23.9% | viability, T/C [25]: 14.5% | viability, T/C [26]: 16.5% | viability, T/C [27]: 15.3% | viability, T/C [28]: 16.4% | viability, T/C [29]: 21.6% | viability, T/C [30]: 20.9% | viability, T/C [31]: 16.2% | viability, T/C [32]: 17.9% | viability, T/C [33]: 17.6% | viability, T/C [34]: 16.8% | viability, T/C [35]: 18.4% | viability, T/C [36]: 19.9%

CCN1CCN(Cc2ccc(Nc3ncc(F)c(-c4cc(F)c5nc(C)n(C(C)C)c5c4)n3)nc2)CC1 + C#Cc1c(F)ccc2cc(O)cc(-c3ncc4c(N5CC6CCC(C5)N6)nc(OCC56CCCN5CC(F)C6)nc4c3F)c12
pIC50 (second compound 0.0316 µM): < 6.00 | pIC50 (second compound 0.1 µM): < 6.00 | pIC50 (second compound 0.316 µM): < 6.00 | pIC50 (second compound 1 µM): > 8.50 | pIC50 (second compound 3.16 µM): > 8.50 | pIC50 (second compound 10 µM): > 8.50 | viability, T/C (second compound 0.0316 µM, first compound 0.00316 µM): 79% | viability, T/C (second compound 0.0316 µM, first compound 0.01 µM): 103% | viability, T/C (second compound 0.0316 µM, first compound 0.0316 µM): 88% | viability, T/C (second compound 0.0316 µM, first compound 0.1 µM): 59.5% | viability, T/C (second compound 0.0316 µM, first compound 0.316 µM): 69.3% | viability, T/C (second compound 0.0316 µM, first compound 1 µM): 69.7% | viability, T/C (second compound 0.1 µM, first compound 0.00316 µM): 87.2% | viability, T/C (second compound 0.1 µM, first compound 0.01 µM): 86.3% | viability, T/C (second compound 0.1 µM, first compound 0.0316 µM): 65.3% | viability, T/C (second compound 0.1 µM, first compound 0.1 µM): 62.4% | viability, T/C (second compound 0.1 µM, first compound 0.316 µM): 59% | viability, T/C (second compound 0.1 µM, first compound 1 µM): 77.4% | viability, T/C (second compound 0.316 µM, first compound 0.00316 µM): 73.3% | viability, T/C (second compound 0.316 µM, first compound 0.01 µM): 66.4% | viability, T/C (second compound 0.316 µM, first compound 0.0316 µM): 63.3% | viability, T/C (second compound 0.316 µM, first compound 0.1 µM): 55% | viability, T/C (second compound 0.316 µM, first compound 0.316 µM): 48.5% | viability, T/C (second compound 0.316 µM, first compound 1 µM): 73.1% | viability, T/C (second compound 1 µM, first compound 0.00316 µM): 48.3% | viability, T/C (second compound 1 µM, first compound 0.01 µM): 51.5% | viability, T/C (second compound 1 µM, first compound 0.0316 µM): 43% | viability, T/C (second compound 1 µM, first compound 0.1 µM): 33.5% | viability, T/C (second compound 1 µM, first compound 0.316 µM): 35.4% | viability, T/C (second compound 1 µM, first compound 1 µM): 55.8% | viability, T/C (second compound 3.16 µM, first compound 0.00316 µM): 28.2% | viability, T/C (second compound 3.16 µM, first compound 0.01 µM): 32% | viability, T/C (second compound 3.16 µM, first compound 0.0316 µM): 27.7% | viability, T/C (second compound 3.16 µM, first compound 0.1 µM): 28% | viability, T/C (second compound 3.16 µM, first compound 0.316 µM): 35.2% | viability, T/C (second compound 3.16 µM, first compound 1 µM): 42.1% | viability, T/C (second compound 10 µM, first compound 0.00316 µM): 23.2% | viability, T/C (second compound 10 µM, first compound 0.01 µM): 22.8% | viability, T/C (second compound 10 µM, first compound 0.0316 µM): 21.9% | viability, T/C (second compound 10 µM, first compound 0.1 µM): 19.4% | viability, T/C (second compound 10 µM, first compound 0.316 µM): 25.7% | viability, T/C (second compound 10 µM, first compound 1 µM): 35.2%
